Source: ChEMBL document CHEMBL5154942, “Discovery of Clinical Candidate NTQ1062 as a Potent and Bioavailable Akt Inhibitor for the Treatment of Human Tumors” (J Med Chem, 2022)
The source made the active and inactive calls. The rule behind the calls is not given here.

Experiments:
[1] = AUC (0 to t) in NCG mouse xenografted with human LNCaP cells at 12.5 mg/kg administered daily once for 18 to 21 days and measured upto 10 hrs post last dose by LC-MS/MS analysis; type: ADME, organism-based; conditions: in vivo
[2] = Cmax in crab-eating monkey at 3 mg/kg, iv measured upto 24 hrs by UPLC-MS/MS analysis; type: ADME, organism-based, Macaca fascicularis; design: dose 3 mg/kg, time < 24 hrs, route iv; conditions: cynomolgus monkey, in vivo
[3] = Metabolic stability in Beagle dog liver microsomes assessed as intrinsic clearance at 1 uM measured after 60 mins by LC-MS/MS analysis; type: ADME, Canis lupus familiaris, Microsome; conditions: 1 h
[4] = Cmax in NCG mouse xenografted with human LNCaP cells at 12.5 mg/kg administered once daily for 18 to 21 days and measured upto 10 hrs post last dose by LC-MS/MS analysis; type: ADME, organism-based; conditions: in vivo
[5] = Cmax in crab-eating monkey at 6 mg/kg, ig by UPLC-MS/MS analysis; type: ADME, organism-based, Macaca fascicularis; design: dose 6 mg/kg, route ig; conditions: cynomolgus monkey, in vivo, po
LNCaP [6] = assay: Induction of apoptosis in human LNCaP cells assessed as apoptotic cells at […] incubated for 72 hrs by annexin V/PI double staining based flow cytometry method (reference value: 3.95 %); type: functional; conditions: dose 2.5 µM
[7] = AUC (0 to t) in crab-eating monkey at 6 mg/kg, ig by UPLC-MS/MS analysis; type: ADME, organism-based, Macaca fascicularis; design: dose 6 mg/kg, route ig; conditions: cynomolgus monkey, in vivo, po
[8] = Cmax in NCG mouse xenografted with human LNCaP cells at 25 mg/kg administered once daily for 18 to 21 days and measured upto 10 hrs post last dose by LC-MS/MS analysis; type: ADME, organism-based; design: time upper 21 day, time lower 18 day, dose 25 mg/kg; conditions: in vivo
[9] = AUC (0 to infinity) in Sprague-Dawley rat at 5 mg/kg, iv measured upto 24 hrs by UPLC-MS/MS analysis; type: ADME, organism-based; design: dose 5 mg/kg, time < 24 hrs, route iv; conditions: in vivo
[10] = Cmax in Sprague-Dawley rat at 5 mg/kg, iv measured upto 24 hrs by UPLC-MS/MS analysis; type: ADME, organism-based; design: dose 5 mg/kg, time < 24 hrs, route iv; conditions: in vivo
[11] = AUC (0 to t) in NCG mouse xenografted with human LNCaP cells at 25 mg/kg administered daily once for 18 to 21 days and measured upto 10 hrs post last dose by LC-MS/MS analysis; type: ADME, organism-based; design: time 18-21 day, dose 25 mg/kg; conditions: in vivo
[12] = AUC (0 to infinity) in Sprague-Dawley rat at 10 mg/kg, ig by UPLC-MS/MS analysis; type: ADME, organism-based; design: time infinity, dose 10 mg/kg, route ig; conditions: in vivo, po
[13] = Metabolic stability in Sprague-Dawley rat liver microsomes assessed as half life at 1 uM measured after 60 mins by LC-MS/MS analysis; type: ADME, Microsome
[14] = AUC (0 to t) in Sprague-Dawley rat at 5 mg/kg, iv measured upto 24 hrs by UPLC-MS/MS analysis; type: ADME, organism-based; design: time < 24 hrs, dose 5 mg/kg, route iv; conditions: in vivo
[15] = Metabolic stability in Crab eating monkey liver microsomes assessed as intrinsic clearance at 1 uM measured after 60 mins by LC-MS/MS analysis; type: ADME, Macaca fascicularis, Microsome; conditions: cynomolgus monkey, 1 h
Cytochrome P450 3A4 = Cytochrome P450 3A4 (Homo sapiens, UniProt P08684); assay: Inhibition of CYP3A4 in human liver microsomes at 0.01 to 30 uM […] in presence of NADPH by UPLC-MS/MS analysis; type: ADME, Microsome
LNCaP [16] = assay: Induction of apoptosis in human LNCaP cells assessed as late apoptotic cells at […] incubated for 72 hrs by annexin V/PI double staining based flow cytometry method (reference value: 2.75 %); type: functional
[17] = Bioavailability in crab-eating monkey at 6 mg/kg, ig by UPLC-MS/MS analysis; type: ADME, organism-based, Macaca fascicularis; conditions: cynomolgus monkey, in vivo, po
[18] = Metabolic stability in CD-1 mouse liver microsomes assessed hepatic clearance at 1 uM measured after 60 mins by LC-MS/MS analysis; type: ADME, Microsome; conditions: 1 h
LNCaP [19] = assay: Induction of apoptosis in human LNCaP cells assessed as necrotic cells at […] incubated for 72 hrs by annexin V/PI double staining based flow cytometry method (reference value: 2.41%); type: functional
LNCaP [20] = assay: Induction of apoptosis in human LNCaP cells assessed as early apoptotic cells at 1.25 uM incubated for 72 hrs by annexin V/PI double staining based flow cytometry method (reference value: […]); type: functional
LNCaP [21] = assay: Induction of apoptosis in human LNCap cells assessed as necrotic cells incubated for 72 hrs by annexin V/PI double staining based flow cytometry method; type: functional, cell-based; conditions: dose 0.62-2.5 µM, DDE = dose-dependent effect
LNCaP [22] = assay: Induction of apoptosis in human LNCaP cells assessed as necrotic cells at 1.25 uM incubated for 72 hrs by annexin V/PI double staining based flow cytometry method (reference value: 2.41%); type: functional
[23] = Metabolic stability in Beagle dog liver microsomes assessed hepatic clearance at 1 uM measured after 60 mins by LC-MS/MS analysis; type: ADME, Canis lupus familiaris, Microsome; conditions: 1 h
[24] = Half life in Sprague-Dawley rat at 5 mg/kg, iv measured upto 24 hrs by UPLC-MS/MS analysis; type: ADME, organism-based; conditions: in vivo
[25] = molecular target: Protein kinase C eta type (Homo sapiens) (UniProt P24723); assay: Inhibition of PKCeta (unknown origin) at 1 uM in presence of ATP at Km concentration by mobility shift assay relative to control
[26] = Metabolic stability in human liver microsomes assessed as parent compound remaining at 1 uM measured after 60 mins by UPLC-MS/MS analysis; type: ADME, Microsome; conditions: read-out: Stability
[27] = Tmax in NCG mouse xenografted with human LNCaP cells at 50 mg/kg administered once daily for 18 to 21 days and measured upto 10 hrs post last dose by LC-MS/MS analysis; type: ADME, organism-based; conditions: in vivo, time 18-21 day
[28] = Metabolic stability in CD-1 mouse liver microsomes assessed as half life at 1 uM measured after 60 mins by LC-MS/MS analysis; type: ADME, Microsome
[29] = Half life in crab-eating monkey at 6 mg/kg, ig by UPLC-MS/MS analysis; type: ADME, organism-based, Macaca fascicularis; conditions: cynomolgus monkey, in vivo, po
Cytochrome P450 2C9 = Cytochrome P450 2C9 (Homo sapiens, UniProt P11712); assay: Inhibition of CYP2C9 in human liver microsomes at 0.01 to 30 uM using diclofenac as substrate in presence of NADPH by UPLC-MS/MS analysis; type: ADME, Microsome
[30] = Tmax in NCG mouse xenografted with human LNCaP cells at 25 mg/kg administered once daily for 18 to 21 days and measured upto 10 hrs post last dose by LC-MS/MS analysis; type: ADME, organism-based; conditions: in vivo, time 18-21 day
LNCaP [31] = assay: In vivo antitumor activity against human LNCap cells xenografted in NCG mouse assessed as tumor growth inhibition at 50 mg/kg administered once daily for 18 to 21 days relative to control; type: functional; conditions: time 18-21 day, read-out: TGI
LNCaP [32] = assay: Induction of cell cycle arrest in human LNCap cells assessed as decrease in accumulation at S phase at 0.04 to 1 uM incubated for 24 hrs by flow cytometry; type: functional, cell-based; conditions: dose 0.04-1 µM
[33] = Toxicity in NCG mouse xenografted with human LNCaP cells assessed as tolerability at 12.5 to 50 mg/kg administered for 18 days; type: organism-based; conditions: in vivo, 432 h, dose 12.5-50 mg/kg, time 18 day
[34] = AUC (0 to infinity) in overnight fasted ICR mouse at 10 mg/kg, po measured upto 24 hrs by UPLC-MS/MS analysis; type: ADME, organism-based; design: dose 10 mg/kg, time < 24 hrs, route po; conditions: in vivo
[35] = Tmax in crab-eating monkey at 6 mg/kg, ig by UPLC-MS/MS analysis; type: ADME, organism-based, Macaca fascicularis; conditions: cynomolgus monkey, in vivo, po

Cytochrome P450 3A4, sequence (P08684 whole entry): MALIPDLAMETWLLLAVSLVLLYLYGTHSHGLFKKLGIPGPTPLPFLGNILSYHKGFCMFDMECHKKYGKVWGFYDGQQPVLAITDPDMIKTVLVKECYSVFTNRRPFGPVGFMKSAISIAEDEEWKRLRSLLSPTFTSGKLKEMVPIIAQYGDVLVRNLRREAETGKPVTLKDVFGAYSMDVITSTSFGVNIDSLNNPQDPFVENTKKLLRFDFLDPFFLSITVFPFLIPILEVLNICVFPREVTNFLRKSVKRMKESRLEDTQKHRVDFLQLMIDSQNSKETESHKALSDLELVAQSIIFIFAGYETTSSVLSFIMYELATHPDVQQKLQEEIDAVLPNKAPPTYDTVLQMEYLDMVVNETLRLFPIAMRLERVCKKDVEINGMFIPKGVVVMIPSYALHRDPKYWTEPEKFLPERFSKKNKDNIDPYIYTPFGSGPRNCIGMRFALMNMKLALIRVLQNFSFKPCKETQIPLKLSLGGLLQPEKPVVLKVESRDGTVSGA
Protein kinase C eta type (Homo sapiens), sequence (P24723 whole entry): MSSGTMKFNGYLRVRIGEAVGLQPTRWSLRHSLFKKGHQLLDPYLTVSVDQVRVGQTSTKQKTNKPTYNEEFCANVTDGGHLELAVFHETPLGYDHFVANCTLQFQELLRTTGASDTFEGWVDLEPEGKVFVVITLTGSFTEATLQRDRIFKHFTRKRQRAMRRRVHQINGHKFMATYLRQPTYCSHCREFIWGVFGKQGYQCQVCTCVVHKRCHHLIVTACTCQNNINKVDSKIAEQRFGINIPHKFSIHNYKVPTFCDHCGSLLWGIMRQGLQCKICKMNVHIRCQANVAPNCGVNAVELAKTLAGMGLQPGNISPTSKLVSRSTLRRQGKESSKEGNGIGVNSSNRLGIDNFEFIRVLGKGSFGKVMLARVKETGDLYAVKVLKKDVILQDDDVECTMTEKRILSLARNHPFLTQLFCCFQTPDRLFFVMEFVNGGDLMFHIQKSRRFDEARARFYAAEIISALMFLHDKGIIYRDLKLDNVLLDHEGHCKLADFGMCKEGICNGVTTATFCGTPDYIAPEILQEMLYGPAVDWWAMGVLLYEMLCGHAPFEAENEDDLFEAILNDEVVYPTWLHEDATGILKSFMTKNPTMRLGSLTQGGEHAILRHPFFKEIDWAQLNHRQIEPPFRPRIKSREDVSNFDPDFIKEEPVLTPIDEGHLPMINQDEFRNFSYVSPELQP
Cytochrome P450 2C9, sequence (P11712 whole entry): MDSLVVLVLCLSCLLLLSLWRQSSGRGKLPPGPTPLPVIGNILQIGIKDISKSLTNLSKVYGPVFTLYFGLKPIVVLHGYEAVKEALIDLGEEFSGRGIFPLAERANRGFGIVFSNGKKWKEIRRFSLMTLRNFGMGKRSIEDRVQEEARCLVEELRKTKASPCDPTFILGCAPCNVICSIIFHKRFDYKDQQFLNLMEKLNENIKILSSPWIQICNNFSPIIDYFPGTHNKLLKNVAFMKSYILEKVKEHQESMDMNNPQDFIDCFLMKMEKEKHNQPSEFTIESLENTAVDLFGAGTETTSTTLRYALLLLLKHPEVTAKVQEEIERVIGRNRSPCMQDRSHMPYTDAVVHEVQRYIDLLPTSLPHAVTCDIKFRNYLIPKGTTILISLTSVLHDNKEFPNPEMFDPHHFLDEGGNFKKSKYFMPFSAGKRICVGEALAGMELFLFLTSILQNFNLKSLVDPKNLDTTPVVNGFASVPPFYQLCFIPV

## CC(C)NC[C@@H](C(=O)N1CCN(c2ncnc3c2[C@H](C)CC(=O)N3)[C@H]2C[C@H]21)c1ccc(Cl)cc1
[1]
  AUC(0-t): 7030 ng·h/mL
[2]
  Cmax: 702 ng/mL
[3]
  CLH: 1.26 mL/h/kg
[4]
  Cmax: 963 ng/mL
[5]
  Cmax: 237 ng/mL
LNCaP [6]
  Activity: 38.97%
[7]
  AUC(0-t): 1480 ng·h/mL
[8]
  Cmax: 1980 ng/mL
[9]
  AUC(0-inf): 1800 ng·h/mL
[10]
  Cmax: 1690 ng/mL
[11]
  AUC(0-t): 13500 ng·h/mL
[12]
  AUC(0-inf): 3890 ng·h/mL
[13]
  half-life at 1 µM: > 3.82 h
[14]
  AUC(0-t) at 24 h: 1760 ng·h/mL
[15]
  CLH: 2.94 mL/h/kg
Cytochrome P450 3A4
  IC50: 15.2 µM
LNCaP [16]; dose 0.62 µM
  Activity: 9.01%
LNCaP [16]; dose 2.5 µM
  Activity: 16.43%
[17]
  bioavailability: 41.2%
[18]
  CLH: < 0.762 mL/h/kg
LNCaP [19]; dose 0.62 µM
  Activity: 4.72%
LNCaP [19]; dose 2.5 µM
  Activity: 6%
LNCaP [20]
  Activity: 12.6%
LNCaP [21]
  Activity: Dde
LNCaP [22]
  Activity: 4.92%
[23]
  CLH: 1.01 mL/h/kg
[24]
  half-life: 2.97 h
[25]
  inhibition: 90%
[26]
  remaining at 1 h, 1 µM: 62.9%
[27]
  Tmax: 1 h
[28]
  half-life at 1 µM: > 6.45 h
[29]
  half-life: 6.16 h
Cytochrome P450 2C9
  IC50: > 50 µM
[30]
  Tmax: 4 h
LNCaP [31]
  inhibition in vivo at 50 mg/kg: 95.5%
LNCaP [32]
  Activity: Active
[33]
  Activity: Non-Toxic
[34]
  AUC(0-inf): 2170 ng·h/mL
[35]
  Tmax: 4 h
